System: 997726-040-R-J2-PDC tumor spheroids, viability
Test: Anticancer human tumor 997726-040-R-J2-PDC patient-derived squamous cell lung carcinoma cell line growth inhibition [PI3K]
Settings: spheroids with HUVEC and MSC; for IC50: curve of first compound; for viability, T/C: stronger effect = lower value
Procedure, shortened: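 Stroma-containing spheroids: tumor line, pooled-donor HUVEC, hMSC. Treatments: targeted agents with PI3K inhibitors. Dosing: clinically relevant, half-log spacing, 10 microM ceiling without known Cmax. Read-out: cell viability.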

[1] = second compound 0.0316 µM, first compound 0.0316 µM
[2] = second compound 0.0316 µM, first compound 0.1 µM
[3] = second compound 0.1 µM, first compound 0.0316 µM
[4] = second compound 0.1 µM, first compound 0.1 µM
[5] = second compound 0.316 µM, first compound 0.0316 µM
[6] = second compound 0.316 µM, first compound 0.1 µM
[7] = second compound 1 µM, first compound 0.0316 µM
[8] = second compound 1 µM, first compound 0.1 µM
[9] = second compound 3.16 µM, first compound 0.0316 µM
[10] = second compound 3.16 µM, first compound 0.1 µM
[11] = second compound 10 µM, first compound 0.0316 µM
[12] = second compound 10 µM, first compound 0.1 µM
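Also: spheroids exposed to compounds for seven days before readout.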

With CC(C)n1nc(-c2ccc3oc(N)nc3c2)c2c(N)ncnc21 + Cc1nc(NC(=O)N2CCCC2C(N)=O)sc1-c1ccnc(C(C)(C)C(F)(F)F)c1 as the molecule, how does the IC50 (second compound 0.0316 µM) read?
Its IC50 is 17.1 nM.

And the IC50 (second compound 0.1 µM)?
The IC50 was 10.7 nM.

What about the IC50 (second compound 0.316 µM) of the same molecule?
The IC50 was 3.53 nM.

And the IC50 (second compound 1 µM)?
The IC50 was < 0.316 nM.

What about the IC50 (second compound 3.16 µM) of the same molecule?
The IC50 was < 0.316 nM.

And the IC50 (second compound 10 µM)?
The IC50 was < 0.316 nM.

And the viability, T/C (second compound 0.0316 µM, first compound 0.000316 µM)?
Its viability, T/C is 80.4%.

What about the viability, T/C (second compound 0.0316 µM, first compound 0.001 µM) of the same molecule?
The viability, T/C was 80%.

What about the viability, T/C (second compound 0.0316 µM, first compound 0.00316 µM) of the same molecule?
The viability, T/C was 66.5%.

And the viability, T/C (second compound 0.0316 µM, first compound 0.01 µM)?
Its viability, T/C is 62%.

What about the viability, T/C [1] of the same molecule?
Its viability, T/C is 38.8%.

What about the viability, T/C [2] of the same molecule?
Its viability, T/C is 7.7%.

And the viability, T/C (second compound 0.1 µM, first compound 0.000316 µM)?
Its viability, T/C is 84.9%.

And the viability, T/C (second compound 0.1 µM, first compound 0.001 µM)?
The viability, T/C was 71.1%.

What about the viability, T/C (second compound 0.1 µM, first compound 0.00316 µM) of the same molecule?
Its viability, T/C is 64.4%.

And the viability, T/C (second compound 0.1 µM, first compound 0.01 µM)?
Its viability, T/C is 52.8%.

And the viability, T/C [3]?
Its viability, T/C is 33.6%.

And the viability, T/C [4]?
The viability, T/C was 7.57%.

What about the viability, T/C (second compound 0.316 µM, first compound 0.000316 µM) of the same molecule?
The viability, T/C was 62%.

What about the viability, T/C (second compound 0.316 µM, first compound 0.001 µM) of the same molecule?
Its viability, T/C is 61.8%.

What about the viability, T/C (second compound 0.316 µM, first compound 0.00316 µM) of the same molecule?
The viability, T/C was 51.1%.

What about the viability, T/C (second compound 0.316 µM, first compound 0.01 µM) of the same molecule?
Its viability, T/C is 36.7%.

What about the viability, T/C [5] of the same molecule?
Its viability, T/C is 28.6%.

What about the viability, T/C [6] of the same molecule?
The viability, T/C was 6.37%.

What about the viability, T/C (second compound 1 µM, first compound 0.000316 µM) of the same molecule?
Its viability, T/C is 43.7%.

And the viability, T/C (second compound 1 µM, first compound 0.001 µM)?
The viability, T/C was 38.9%.

And the viability, T/C (second compound 1 µM, first compound 0.00316 µM)?
The viability, T/C was 38.3%.

What about the viability, T/C (second compound 1 µM, first compound 0.01 µM) of the same molecule?
The viability, T/C was 32.7%.

What about the viability, T/C [7] of the same molecule?
Its viability, T/C is 21.3%.

What about the viability, T/C [8] of the same molecule?
Its viability, T/C is 3.77%.

And the viability, T/C (second compound 3.16 µM, first compound 0.000316 µM)?
The viability, T/C was 32.4%.

And the viability, T/C (second compound 3.16 µM, first compound 0.001 µM)?
The viability, T/C was 31.8%.

What about the viability, T/C (second compound 3.16 µM, first compound 0.00316 µM) of the same molecule?
Its viability, T/C is 27.9%.

And the viability, T/C (second compound 3.16 µM, first compound 0.01 µM)?
The viability, T/C was 24.5%.

And the viability, T/C [9]?
The viability, T/C was 9.73%.

And the viability, T/C [10]?
The viability, T/C was 2.15%.

And the viability, T/C (second compound 10 µM, first compound 0.000316 µM)?
Its viability, T/C is 21%.

And the viability, T/C (second compound 10 µM, first compound 0.001 µM)?
The viability, T/C was 11.3%.

What about the viability, T/C (second compound 10 µM, first compound 0.00316 µM) of the same molecule?
Its viability, T/C is 10.4%.

What about the viability, T/C (second compound 10 µM, first compound 0.01 µM) of the same molecule?
Its viability, T/C is 8.32%.

And the viability, T/C [11]?
Its viability, T/C is 4.53%.

What about the viability, T/C [12] of the same molecule?
Its viability, T/C is 1.59%.

How did the IC50 (second compound 0.0316 µM) turn out when CCCS(=O)(=O)Nc1ccc(F)c(C(=O)c2c[nH]c3ncc(-c4ccc(Cl)cc4)cc23)c1F + Cc1nc(NC(=O)N2CCCC2C(N)=O)sc1-c1ccnc(C(C)(C)C(F)(F)F)c1 was run?
The IC50 was 6890 nM.

What about the IC50 (second compound 0.1 µM) of the same molecule?
Its IC50 is 6000 nM.

What about the IC50 (second compound 0.316 µM) of the same molecule?
Its IC50 is 4660 nM.

What about the IC50 (second compound 1 µM) of the same molecule?
The IC50 was 31.6 nM.

And the IC50 (second compound 3.16 µM)?
Its IC50 is < 31.6 nM.

And the IC50 (second compound 10 µM)?
The IC50 was < 31.6 nM.

And the viability, T/C [1]?
Its viability, T/C is 88.6%.

And the viability, T/C [2]?
Its viability, T/C is 93.5%.

And the viability, T/C (second compound 0.0316 µM, first compound 0.316 µM)?
Its viability, T/C is 103%.

And the viability, T/C (second compound 0.0316 µM, first compound 1 µM)?
The viability, T/C was 122%.

What about the viability, T/C (second compound 0.0316 µM, first compound 3.16 µM) of the same molecule?
The viability, T/C was 103%.

And the viability, T/C (second compound 0.0316 µM, first compound 10 µM)?
Its viability, T/C is 25%.

And the viability, T/C [3]?
The viability, T/C was 76.4%.

What about the viability, T/C [4] of the same molecule?
The viability, T/C was 80.5%.

What about the viability, T/C (second compound 0.1 µM, first compound 0.316 µM) of the same molecule?
The viability, T/C was 80.5%.

And the viability, T/C (second compound 0.1 µM, first compound 1 µM)?
Its viability, T/C is 95.7%.

And the viability, T/C (second compound 0.1 µM, first compound 3.16 µM)?
The viability, T/C was 88.4%.

And the viability, T/C (second compound 0.1 µM, first compound 10 µM)?
Its viability, T/C is 22.6%.

And the viability, T/C [5]?
Its viability, T/C is 55.6%.

And the viability, T/C [6]?
Its viability, T/C is 62.3%.

And the viability, T/C (second compound 0.316 µM, first compound 0.316 µM)?
Its viability, T/C is 69.8%.

What about the viability, T/C (second compound 0.316 µM, first compound 1 µM) of the same molecule?
The viability, T/C was 63.7%.

And the viability, T/C (second compound 0.316 µM, first compound 3.16 µM)?
The viability, T/C was 66.9%.

And the viability, T/C (second compound 0.316 µM, first compound 10 µM)?
Its viability, T/C is 23.3%.

What about the viability, T/C [7] of the same molecule?
Its viability, T/C is 41.9%.

What about the viability, T/C [8] of the same molecule?
Its viability, T/C is 40.5%.

What about the viability, T/C (second compound 1 µM, first compound 0.316 µM) of the same molecule?
The viability, T/C was 48.3%.

And the viability, T/C (second compound 1 µM, first compound 1 µM)?
The viability, T/C was 57.1%.

What about the viability, T/C (second compound 1 µM, first compound 3.16 µM) of the same molecule?
Its viability, T/C is 52%.

What about the viability, T/C (second compound 1 µM, first compound 10 µM) of the same molecule?
Its viability, T/C is 18.1%.

What about the viability, T/C [9] of the same molecule?
The viability, T/C was 29.2%.

What about the viability, T/C [10] of the same molecule?
The viability, T/C was 31.4%.

And the viability, T/C (second compound 3.16 µM, first compound 0.316 µM)?
The viability, T/C was 31.7%.

What about the viability, T/C (second compound 3.16 µM, first compound 1 µM) of the same molecule?
Its viability, T/C is 34.7%.

What about the viability, T/C (second compound 3.16 µM, first compound 3.16 µM) of the same molecule?
The viability, T/C was 31.1%.

What about the viability, T/C (second compound 3.16 µM, first compound 10 µM) of the same molecule?
Its viability, T/C is 17.9%.

And the viability, T/C [11]?
Its viability, T/C is 16.4%.

And the viability, T/C [12]?
The viability, T/C was 16.9%.

What about the viability, T/C (second compound 10 µM, first compound 0.316 µM) of the same molecule?
Its viability, T/C is 13.8%.

And the viability, T/C (second compound 10 µM, first compound 1 µM)?
Its viability, T/C is 17.1%.

What about the viability, T/C (second compound 10 µM, first compound 3.16 µM) of the same molecule?
Its viability, T/C is 11.9%.

And the viability, T/C (second compound 10 µM, first compound 10 µM)?
Its viability, T/C is 7.69%.
